Where two headings read alike, the source gives them in different places.
Tests used:
[1] = tested on: 53 CRE and CPE strains; assay: MICrange, MIC50, MIC80, MIC90 for 53 bacterial isolates (Example 5, Table 5); type: cell-based
[2] = tested on: Enterobacterales; assay: MIC, broth microdilution, CDC/FDA Antibiotic Resistance Isolate Bank (Example 7, Tables 8, 11, 12); type: cell-based

CC(C)(O/N=C(\C(=O)N[C@@H]1C(=O)N2C(C(=O)[O-])=C(C[N+]3(CCNC(=O)c4ccc(O)c(O)c4Cl)CCCC3)CS[C@H]12)c1csc(N)n1)C(=O)O [Cefiderocol, cefiderocol]
0.12 µg/mL: MIC ([2]; Enterobacter cloacae, KUB No. 5550, AR Bank# 53, read-out: MIC) | MIC ([2]; Escherichia coli, KUB No. 5564, AR Bank # 67, read-out: MIC) | MIC ([2]; Escherichia coli, KUB No. 5582, AR Bank # 85, read-out: MIC) | MIC ([2]; Escherichia coli, KUB No. 5583, AR Bank # 86, read-out: MIC) | MIC ([2]; Escherichia coli, KUB No. 5774, AR Bank # 378, read-out: MIC) | MIC ([2]; Klebsiella oxytoca, KUB No. 5644, AR Bank # 147, read-out: MIC) | MIC ([2]; Klebsiella pneumoniae, KUB No. 5536, AR Bank# 39, read-out: MIC) | MIC ([2]; Klebsiella pneumoniae, KUB No. 5576, AR Bank # 79, read-out: MIC) | MIC ([2]; Klebsiella pneumoniae, KUB No. 5595, AR Bank # 98, read-out: MIC)
1 µg/mL: MIC80 ([2]; 154 strains of Enterobacterales, read-out: MIC80) | MIC ([2]; Citrobacter freundii, KUB No. 5654, AR Bank # 157, read-out: MIC) | MIC ([2]; Enterobacter cloacae, Enterobacter cloacae KUB No. 5807, AR Bank #501, read-out: MIC) | MIC ([2]; Enterobacter cloacae, Enterobacter cloacae KUB No. 5808, AR Bank #502, read-out: MIC) | MIC ([2]; Enterobacter cloacae, KUB No. 5763, AR Bank # 367, read-out: MIC) | MIC ([2]; Escherichia coli, Escherichia coli KUB No. 5796, AR Bank #452, read-out: MIC) | MIC ([2]; Escherichia coli, KUB No. 5566, AR Bank # 69, read-out: MIC) | MIC ([2]; Escherichia coli, KUB No. 5601, AR Bank # 104, read-out: MIC) | MIC ([2]; Escherichia coli, KUB No. 5768, AR Bank # 372, read-out: MIC) | MIC ([2]; Klebsiella aerogenes, Enterobacter aerogenes, KUB No. 5658, AR Bank # 161, read-out: MIC) | MIC ([2]; Klebsiella aerogenes, Enterobacter aerogenes, KUB No. 5777, AR Bank # 431, read-out: MIC) | MIC ([2]; Klebsiella pneumoniae, KUB No. 5546, AR Bank# 49, read-out: MIC) | MIC ([2]; Klebsiella pneumoniae, KUB No. 5584, AR Bank # 87, read-out: MIC) | MIC ([2]; Klebsiella pneumoniae, KUB No. 5594, AR Bank # 97, read-out: MIC) | MIC ([2]; Klebsiella pneumoniae, KUB No. 5603, AR Bank # 106, read-out: MIC) | MIC ([2]; Klebsiella pneumoniae, KUB No. 5622, AR Bank # 125, read-out: MIC) | MIC ([2]; Klebsiella pneumoniae, KUB No. 5626, AR Bank # 129, read-out: MIC)
8 µg/mL: MIC ([2]; Escherichia coli, KUB No. 5659, AR Bank # 162, read-out: MIC)
≤0.06 to 8 µg/mL: MICrange ([1]; 53 bacterial isolates)
0.5 µg/mL: MIC50 ([2]; 154 strains of Enterobacterales, read-out: MIC50) | MIC ([2]; Enterobacter cloacae, Enterobacter cloacae complex, KUB No. 5661, AR Bank # 164, read-out: MIC) | MIC ([2]; Enterobacter cloacae, Enterobacter cloacae group, KUB No. 5629, AR Bank # 132, read-out: MIC) | MIC ([2]; Enterobacter cloacae, KUB No. 5535, AR Bank# 38, read-out: MIC) | MIC ([2]; Escherichia coli, Escherichia coli KUB No. 5795, AR Bank #451, read-out: MIC) | MIC ([2]; Escherichia coli, KUB No. 5581, AR Bank # 84, read-out: MIC) | MIC ([2]; Escherichia coli, KUB No. 5616, AR Bank # 119, read-out: MIC) | MIC ([2]; Escherichia coli, KUB No. 5766, AR Bank # 370, read-out: MIC) | MIC ([2]; Escherichia coli, KUB No. 5767, AR Bank # 371, read-out: MIC) | MIC ([2]; Escherichia coli, KUB No. 5779, AR Bank # 433, read-out: MIC) | MIC ([2]; Escherichia coli, KUB No. 5780, AR Bank # 434, read-out: MIC) | MIC ([2]; Klebsiella oxytoca, KUB No. 5771, AR Bank # 375, read-out: MIC) | MIC ([2]; Klebsiella pnemnonine, KUB No. 5758, AR Bank # 362, read-out: MIC) | MIC ([2]; Klebsiella pneumoniae, KUB No. 5537, AR Bank# 40, read-out: MIC) | MIC ([2]; Klebsiella pneumoniae, KUB No. 5541, AR Bank# 44, read-out: MIC) | MIC ([2]; Klebsiella pneumoniae, KUB No. 5563, AR Bank # 66, read-out: MIC) | MIC ([2]; Klebsiella pneumoniae, KUB No. 5606, AR Bank # 109, read-out: MIC) | MIC ([2]; Klebsiella pneumoniae, KUB No. 5610, AR Bank # 113, read-out: MIC) | MIC ([2]; Klebsiella pneumoniae, KUB No. 5612, AR Bank # 115, read-out: MIC)
2 µg/mL: MIC80 ([1]; 53 bacterial isolates, read-out: MIC80) | MIC90 ([2]; 154 strains of Enterobacterales, read-out: MIC90) | MIC ([2]; Enterobacter cloacae, Enterobacter cloacae KUB No. 5792, AR Bank #448, read-out: MIC) | MIC ([2]; Enterobacter cloacae, KUB No. 5547, AR Bank# 50, read-out: MIC) | MIC ([2]; Escherichia coli, Escherichia coli KUB No. 5803, AR Bank #861, read-out: MIC) | MIC ([2]; Escherichia coli, KUB No. 5615, AR Bank # 118, read-out: MIC) | MIC ([2]; Escherichia coli, KUB No. 5625, AR Bank # 128, read-out: MIC) | MIC ([2]; Escherichia coli, KUB No. 5634, AR Bank # 137, read-out: MIC) | MIC ([2]; Klebsiella pneumoniae, KUB No. 5538, AR Bank# 41, read-out: MIC) | MIC ([2]; Klebsiella pneumoniae, KUB No. 5565, AR Bank # 68, read-out: MIC) | MIC ([2]; Klebsiella pneumoniae, KUB No. 5577, AR Bank # 80, read-out: MIC) | MIC ([2]; Klebsiella pneumoniae, KUB No. 5609, AR Bank # 112, read-out: MIC) | MIC ([2]; Klebsiella pneumoniae, KUB No. 5614, AR Bank # 117, read-out: MIC)
4 µg/mL: MIC90 ([1]; 53 CRE and CPE strains, read-out: MIC90) | MIC90 ([1]; 53 bacterial isolates) | MIC ([2]; Enterobacter cloacae, KUB No. 5557, AR Bank# 60, read-out: MIC) | MIC ([2]; Enterobacter cloacae, KUB No. 5778, AR Bank # 432, read-out: MIC) | MIC ([2]; Enterobacter cloaccae, KUB No. 5651, AR Bank # 154, read-out: MIC) | MIC ([2]; Escherichia coli, KUB No. 5647, AR Bank # 150, read-out: MIC) | MIC ([2]; Escherichia coli, KUB No. 5648, AR Bank # 151, read-out: MIC) | MIC ([2]; Escherichia coli, KUB No. 5781, AR Bank # 435, read-out: MIC)
0.25 µg/mL: MIC ([2]; Enterobacter cloacae, KUB No. 5562, AR Bank # 65, read-out: MIC) | MIC ([2]; Enterobacter cloacae, KUB No. 5569, AR Bank # 72, read-out: MIC) | MIC ([2]; Enterobacter cloacae, KUB No. 5570, AR Bank # 73, read-out: MIC) | MIC ([2]; Enterobacter cloacae, KUB No. 5590, AR Bank # 93, read-out: MIC) | MIC ([2]; Enterobacter cloacae, KUB No. 5660, AR Bank # 163, read-out: MIC) | MIC ([2]; Enterobacter cloacae, KUB No. 5761, AR Bank # 365, read-out: MIC) | MIC ([2]; Enterobacter cloacae, KUB No. 5762, AR Bank # 366, read-out: MIC) | MIC ([2]; Enterobacter clooreae, KUB No. 5633, AR Bank # 136, read-out: MIC) | MIC ([2]; Escherichia coli, Escherichia coli KUB No. 5783, AR Bank #437, read-out: MIC) | MIC ([2]; Escherichia coli, Escherichia coli KUB No. 5794, AR Bank #450, read-out: MIC) | MIC ([2]; Escherichia coli, KUB No. 5578, AR Bank # 81, read-out: MIC) | MIC ([2]; Escherichia coli, KUB No. 5611, AR Bank # 114, read-out: MIC) | MIC ([2]; Escherichia coli, KUB No. 5765, AR Bank # 369, read-out: MIC) | MIC ([2]; Klebsiella pneumoniae, KUB No. 5531, AR Bank# 34, read-out: MIC) | MIC ([2]; Klebsiella pneumoniae, KUB No. 5540, AR Bank# 43, read-out: MIC) | MIC ([2]; Klebsiella pneumoniae, KUB No. 5543, AR Bank# 46, read-out: MIC) | MIC ([2]; Klebsiella pneumoniae, KUB No. 5572, AR Bank # 75, read-out: MIC) | MIC ([2]; Klebsiella pneumoniae, KUB No. 5617, AR Bank # 120, read-out: MIC)
16 µg/mL: MIC ([2]; Escherichia coli, KUB No. 5646, AR Bank # 149, read-out: MIC)
≤ 0.06 µg/mL: MIC ([2]; Escherichia coli, KUB No. 5558, AR Bank # 61, read-out: MIC) | MIC ([2]; Escherichia coli, KUB No. 5574, AR Bank # 77, read-out: MIC) | MIC ([2]; Escherichia coli, KUB No. 5586, AR Bank # 89, read-out: MIC) | MIC ([2]; Escherichia coli, KUB No. 5764, AR Bank # 368, read-out: MIC) | MIC ([2]; Escherichia coli, KUB No. 5769, AR Bank # 373, read-out: MIC) | MIC ([2]; Klebsiella aerogenes, Enterobacter aerogenes, KUB No. 5559, AR Bank # 62, read-out: MIC) | MIC ([2]; Klebsiella aerogenes, Enterobacter aerogenes, KUB No. 5571, AR Bank # 74, read-out: MIC) | MIC ([2]; Klebsiella oxytoca, KUB No. 5568, AR Bank # 71, read-out: MIC) | MIC ([2]; Klebsiella oxytoca, KUB No. 5776, AR Bank # 380, read-out: MIC) | MIC ([2]; Klebsiella ozaenae, KUB No. 5593, AR Bank # 96, read-out: MIC) | MIC ([2]; Klebsiella pneumoniae, KUB No. 5573, AR Bank # 76, read-out: MIC) | MIC ([2]; Klebsiella pneumoniae, KUB No. 5604, AR Bank # 107, read-out: MIC) | MIC ([2]; Klebsiella pneumoniae, KUB No. 5623, AR Bank # 126, read-out: MIC)
≤0.0 µg/mL: MIC ([2]; Escherichia, KUB No. 57, AR Bank # 436 (row cut off))
< 0.06 µg/mL: MIC ([2]; Escherichia coli, KUB No. 5770, AR Bank # 374, read-out: MIC)
